Measured values reported in patent publication US20230278972A1, “SUBSTITUTED HALOALKYL SULFONANILIDE HERBICIDES” (FMC Corporation, priority 2020, published 2023).
Where two headings read alike, the source gives them in different places.

Experiments:
[1] = system: Ryegrass, Italian (Italian ryegrass, Lolium multiflorum); assay: Test A postemergence, Ryegrass, Italian; type: in vivo; settings: Lolium multiflorum, post-emergence, 240 h, Postemergence, 0 to 100 scale (0 no effect, 100 complete control); for pest or weed control at 125 g/ha: 125 g ai/ha; for pest or weed control at 500 g/ha: 500 g ai/ha
In short: (§1)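 Whole-plant herbicidal screen in pots of loam blended with sand. Sprays used a surfactant-containing, non-phytotoxic solvent vehicle. Timing was preemergence soil-directed at planting or postemergence at the one- to two-leaf stage (2–10 cm).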

[2] = system: Foxtail, Giant (giant foxtail, Setaria faberi); assay: Test A postemergence, Foxtail, Giant; type: in vivo; settings: Setaria faberi, post-emergence, 240 h, Postemergence, 0 to 100 scale (0 no effect, 100 complete control); for pest or weed control at 125 g/ha: 125 g ai/ha; for pest or weed control at 500 g/ha: 500 g ai/ha
In short: as §1

[3] = system: pigweed (Amaranthus retroflexus); assay: Test A postemergence, pigweed; type: in vivo; settings: Amaranthus retroflexus, post-emergence, 240 h, Postemergence, 0 to 100 scale (0 no effect, 100 complete control); for pest or weed control at 125 g/ha: 125 g ai/ha; for pest or weed control at 500 g/ha: 500 g ai/ha
In short: as §1

rice (Oryza sativa) = assay: Test B flooded paddy test, rice; settings: 336 h, read-out: Plant response rating, Rice
[4] = system: ducksalad (Heteranthera limosa); assay: Test B flooded paddy test, ducksalad; settings: 336 h, read-out: Plant response rating, Ducksalad
[5] = visual injury approx. 10 days, read-out: Plant response rating, Ryegrass, Italian
[6] = visual injury, approx. 10 days, read-out: Plant response rating, Ryegrass, Italian
[7] = visual injury approx. 10 days, read-out: Plant response rating, Foxtail, Giant
[8] = visual injury, approx. 10 days, read-out: Plant response rating, Foxtail, Giant
[9] = visual injury approx. 10 days, read-out: Plant response rating, Pigweed
[10] = visual injury, approx. 10 days, read-out: Plant response rating, Pigweed
[11] = visual injury vs untreated controls after approx. 10 days, read-out: Ryegrass, Italian plant response rating
[12] = visual injury vs untreated controls after approx. 10 days, read-out: Foxtail, Giant plant response rating
[13] = visual injury vs untreated controls after approx. 10 days, read-out: Pigweed plant response rating
[14] = read-out: Plant response rating, Ryegrass, Italian
[15] = read-out: Plant response rating, Pigweed
[16] = read-out: Plant response rating, Foxtail, Giant

| SMILES | pest or weed control at 125 g/ha [1, 5] | pest or weed control at 500 g/ha [1, 6] | pest or weed control at 125 g/ha [2, 7] | pest or weed control at 500 g/ha [2, 8] | pest or weed control at 125 g/ha [3, 9] | pest or weed control at 500 g/ha [3, 10] | plant injury at 250 g/ha (rice (Oryza sativa)) | pest or weed control at 250 g/ha [4] | pest or weed control at 500 g/ha [1, 11] | pest or weed control at 500 g/ha [2, 12] | pest or weed control at 500 g/ha [3, 13] | pest or weed control at 125 g/ha [1, 14] | pest or weed control at 125 g/ha [3, 15] | pest or weed control at 125 g/ha [2, 16] | pest or weed control at 500 g/ha [1, 5] | pest or weed control at 500 g/ha [2, 7] | pest or weed control at 500 g/ha [3, 9] |
| --- | --- | --- | --- | --- | --- | --- | --- | --- | --- | --- | --- | --- | --- | --- | --- | --- | --- |
| Cc1cc(Cl)c(NS(=O)(=O)C(F)(F)F)cc1C(=O)N1CCOCC1 [Compound 16, N-[2-Chloro-4-methyl-5-(4-morpholinylcarbonyl)phenyl]-1,1,1-trifluoromethanesulfonamide] | 50% | 70% | 40% | 90% | 70% | 90% | 0% | 40% | – | – | – | – | – | – | – | – | – |
| Cc1cc(Cl)c(NS(=O)(=O)C(F)(F)F)cc1C(=O)N1CCCCC1 [Compound 18, N-[2-Chloro-4-methyl-5-(1-piperidinylcarbonyl)phenyl]-1,1,1-trifluoromethanesulfonamide] | 10% | 40% | 20% | 70% | 40% | 90% | 0% | 0% | – | – | – | – | – | – | – | – | – |
| CCc1cc(-c2cc(NS(=O)(=O)C(F)(F)F)c(C)cc2C)c(=O)n(C)n1 [Compound 34, N-[5-(6-Ethyl-2,3-dihydro-2-methyl-3-oxo-4-pyridazinyl)-2,4-dimethylphenyl]-1,1,1-trifluoromethanesulfonamide] | 0% | 0% | 0% | 0% | 0% | 0% | 0% | 0% | – | – | – | – | – | – | – | – | – |
| Cc1cc(C)c(N(COC(=O)C(C)(C)C)S(=O)(=O)C(F)(F)F)cc1C1=NO[C@@H]2CCC[C@H]12 [Compound 100, [[2,4-Dimethyl-5-[(3aR,6aR)-3a,5,6,6a-tetrahydro-4H-cyclopent[d]isoxazol-3-yl]phenyl][(trifluoromethyl)sulfonyl]amino]methyl 2,2-dimethylpropanoate] | 20% | – | 10% | – | 60% | – | 20% | 70% | 40% | 40% | 90% | – | – | – | – | – | – |
| Cc1cc(C)c(C2=NO[C@@H]3CCC[C@H]23)cc1NS(=O)(=O)C(F)(F)F [Compound 103, N-[2,4-Dimethyl-5-[(3aR,6aR)-3a,5,6,6a-tetrahydro-4H-cyclopent[d]isoxazol-3-yl]phenyl]-1,1,1-trifluoromethanesulfonamide] | 90% | – | 30% | – | 80% | – | 25% | 80% | 90% | 70% | 80% | – | – | – | – | – | – |
| Cc1cc(C)c(C2=NOC3CCOCC23)cc1NS(=O)(=O)C(F)(F)F (stereo not drawn) [Compound 120, N-[2,4-Dimethyl-5-(3a,6,7,7a-tetrahydro-4H-pyrano[3,4-d]isoxazol-3-yl)phenyl]-1,1,1-trifluoromethanesulfonamide] | 90% | – | 40% | – | 60% | – | 0% | 55% | 80% | 90% | 90% | – | – | – | – | – | – |
| Cc1cc(C)c(C2=NOC3COCCC23)cc1NS(=O)(=O)C(F)(F)F (stereo not drawn) [Compound 121, N-[2,4-Dimethyl-5-(3a,4,7,7a-tetrahydro-5H-pyrano[4,3-d]isoxazol-3-yl)phenyl]-1,1,1-trifluoromethanesulfonamide] | 90% | – | 50% | – | 70% | – | 20% | 75% | 80% | 90% | 90% | – | – | – | – | – | – |
| Cc1c(NS(=O)(=O)C(F)(F)F)cc(C(=O)N(C)C)c(C)c1F [Compound 128, 3-Fluoro-N,N,2,4-tetramethyl-5-[[(trifluoromethyl)sulfonyl]amino]benzamide] | 80% | – | 10% | – | 60% | – | 0% | 50% | 100% | 50% | 90% | – | – | – | – | – | – |
| Cc1cc(C)c(N(COC(=O)C(C)(C)C)S(=O)(=O)C(F)(F)F)cc1C1=NOC2(CCCC2)C1 [Compound 140, [[2,4-Dimethyl-5-(1-oxa-2-azaspiro[4.4]non-2-en-3-yl)phenyl][(trifluoromethyl)sulfonyl]amino]methyl 2,2-dimethylpropanoate] | – | – | 30% | – | – | – | 0% | 85% | 20% | 90% | 80% | 0% | 10% | – | – | – | – |
| Cc1cc(C)c(N(COC(=O)C(C)(C)C)S(=O)(=O)C(F)(F)F)cc1C1=NOC2(CCCCC2)C1 [Compound 159, [[2,4-Dimethyl-5-(1-oxa-2-azaspiro[4.5]dec-2-en-3-yl)phenyl][(trifluoromethyl)sulfonyl]amino]methyl 2,2-dimethylpropanoate] | – | – | – | – | – | – | 0% | 35% | 0% | 30% | 70% | 0% | 40% | 0% | – | – | – |
| Cc1c(NS(=O)(=O)C(F)(F)F)cc(C(=O)N2CCOCC2)c(C)c1F [Compound 190, 1,1,1-Trifluoro-N-[3-fluoro-2,4-dimethyl-5-(4-morpholinylcarbonyl)phenyl]methanesulfonamide] | – | – | – | – | – | – | 0% | 75% | 90% | 80% | 100% | 80% | 70% | 20% | – | – | – |
| Cc1cc(C)c(C2=NOC3(CCCCC3)C2)cc1NS(=O)(=O)C(F)(F)F [Compound 197, N-[2,4-Dimethyl-5-(1-oxa-2-azaspiro[4.5]dec-2-en-3-yl)phenyl]-1,1,1-trifluoromethanesulfonamide] | – | – | – | – | – | – | 0% | 95% | 60% | 90% | 90% | 50% | 60% | 80% | – | – | – |
| Cc1cc(C)c(C2=NOC3(CCCC3)C2)cc1NS(=O)(=O)C(F)(F)F [Compound 207, N-[2,4-Dimethyl-5-(1-oxa-2-azaspiro[4.4]non-2-en-3-yl)phenyl]-1,1,1-trifluoromethanesulfonamide] | – | – | – | – | – | – | 0% | 95% | 90% | 90% | 70% | 40% | 50% | 50% | – | – | – |
| Cc1cc(Cl)c(NS(=O)(=O)C(F)(F)F)cc1C(=O)N1CCC(F)(F)CC1 [Compound 229, N-[2-Chloro-5-[(4,4-difluoro-1-piperidinyl)carbonyl]-4-methylphenyl]-1,1,1-trifluoromethanesulfonamide] | – | – | – | – | – | – | 10% | 75% | 70% | 90% | 100% | 30% | 80% | 50% | – | – | – |
| Cc1cc(C)c(C(=O)N2CCC(F)(F)CC2)cc1NS(=O)(=O)C(F)(F)F [Compound 241, N-[5-[(4,4-Difluoro-1-piperidinyl)carbonyl]-2,4-dimethylphenyl]-1,1,1-trifluoromethanesulfonamide] | – | – | – | – | – | – | 25% | 85% | – | – | – | 0% | 60% | 0% | 70% | 30% | 80% |
